Results from US4411890A, “Synthetic peptides having pituitary growth hormone releasing activity” (Beckman Instruments, Inc., priority 1981, dated 1983).
Where a SMILES comes first, the peptide text is derived from it.

How the values were obtained:
pituitaries = assay: In vitro growth hormone release study (incubated rat pituitaries, GH by RIA); type: cell-based; details: GH released at I3, I4 (I5) minus P2, mean ± SEM
Description: Female rats of the CD-1 strain were housed in a constant temperature room at 24° C. with 14 hours light and 10 hours darkness. The rats were fed Purina brand rat chow ab libitum. All studies were started between 0800 and 1000 hours.
Pituitaries were removed from 20 day old female rats. In each polytetrafluoroethylene beaker (10 ml) was incubated two pituitaries at 36° C. in 1 ml of lactated Ringer's solution in a Dubnoff Shaker (90 cycles/min.). All medium in each beaker was removed each hour (e.g., P1, P2, I3, I4, I5) and then fresh medium was added back to each beaker. Each medium removed was assayed for GH, in duplicate, by a standard radioimmunoassay (RIA).
The growth hormone agonist of Example 1 was not added to the incubation mediums employed during the first hour of the incubation period (P1) or to the incubation mediums employed during the second hour of the incubation period (P2). The growth hormone agonist of Example 1 was dissolved in dimethylsulfoxide (DMSO; 10:1, agonist:DMSO), added to each incubation medium employed during the third hour of the incubation period (I3), to each medium employed during the fourth hour of the incubation period (I4), and, when performed, to each medium employed during the fifth hour of the incubation period (I5). The release of growth hormone was recorded as ΔGH and calculated by subtracting the amount of GH released at P2 from that released at I3, I4, and, when performed, I5. The agonist activity was determined from the release at I3, I4, and, when performed, I5. The mean of the ΔGH values obtained from the three beakers per dosage level measured at I3, I4, and, when performed, I5 are set forth in Table VI.

[1] = system: Female rats of The CD-1 strain; assay: In vivo growth hormone release study (subcutaneous injection, serum GH by RIA); parameters: species or system rat; details: serum GH about 15 minutes after injection, 21 day old female rats, mean ± SEM
Description: Female rats of The CD-1 strain were housed in a constant temperature room at 24° C. with 14 hours light and 10 hours darkness. The rats were fed Purina brand rat chow ab libitum. All studies were started between 0800 and 1000 hours. Each female rat (21 days old; eight rats per dosage level shown in Table XXVI) was injected subcutaneously with a desired dosage of the peptide of Example 6. Approximately 15 minutes after injection, the rat was guillotined. A blood sample was collected from the guillotined rat. The blood sample was centrifuged and a serum sample was collected therefrom. Each serum sample was assayed for GH, in duplicate, by a standard radioimmunoassay (RIA).

[2] = dosage 1 ng/ml incubation medium
[3] = dosage 3 ng/ml incubation medium
[4] = dosage 10 ng/ml incubation medium
[5] = dosage 1.0 μg/ml serum (so in the source)
[6] = dosage 3.0 μg/ml serum (so in the source)
[7] = dosage 10.0 μg/ml serum (so in the source)
[8] = dosage 30 ng/ml incubation medium
[9] = dosage 100 ng/ml incubation medium
[10] = dosage 1,000 ng/ml incubation medium
[11] = dosage 10,000 ng/ml incubation medium
[12] = dosage 300 ng/ml incubation medium
[13] = dosage 3,000 ng/ml incubation medium
[14] = dosage 30,000 ng/ml incubation medium

Molecule | ΔGH (pituitaries; [4]) | ΔGH (pituitaries; [8]) | ΔGH (pituitaries; [9]) | ΔGH (pituitaries; [10]) | other results
C[C@H](NC(=O)[C@@H](Cc1c[nH]c2ccccc12)NC(=O)[C@@H](N)Cc1c[nH]cn1)C(=O)N[C@@H](Cc1c[nH]c2ccccc12)C(=O)N[C@H](Cc1ccccc1)C(=O)N[C@@H](CCCNC(=N)N)C(N)=O [H2 -His-D-Trp-Ala-Trp-D-Phe-Arg-NH2] (HELM PEPTIDE1{H.[dW].A.W.[dF].R.[am]}$$$$V2.0) | 2,064 ± 346 ng/ml incubation medium |  |  |  | ΔGH (pituitaries; [2]): 805 ± 152 ng/ml incubation medium; ΔGH (pituitaries; [3]): 997 ± 249 ng/ml incubation medium; ΔGH [1, 5]: 9.2 ± 3.4 ng/ml subcutaneous; ΔGH [1, 6]: 32.2 ± 5.5 ng/ml subcutaneous; ΔGH [1, 7]: 87.5 ± 31 ng/ml subcutaneous; ΔGH ([1]; dosage 30.0 μg/ml serum (so in the source)): 31.1 ± 3.4 ng/ml subcutaneous
C[C@H](NC(=O)[C@@H](Cc1c[nH]c2ccccc12)NC(=O)[C@@H](N)Cc1c[nH]cn1)C(=O)N[C@@H](Cc1c[nH]c2ccccc12)C(=O)N[C@H](Cc1ccccc1)C(=O)N[C@@H](CCC(N)=O)C(N)=O [H2 -His-D-Trp-Ala-Trp-D-Phe-Gln-NH2] (HELM PEPTIDE1{H.[dW].A.W.[dF].Q.[am]}$$$$V2.0) | 275 ± 66 ng/ml incubation medium |  |  |  | ΔGH (pituitaries; [2]): 5 ± 136 ng/ml incubation medium; ΔGH (pituitaries; [3]): 140 ± 168 ng/ml incubation medium; ΔGH [1, 5]: 1.4 ± 0.9 ng/ml subcutaneous; ΔGH [1, 6]: 3.8 ± 2.1 ng/ml subcutaneous; ΔGH [1, 7]: 32.1 ± 11.4 ng/ml subcutaneous
C[C@H](NC(=O)[C@@H](Cc1c[nH]c2ccccc12)NC(=O)[C@@H](N)Cc1c[nH]cn1)C(=O)N[C@@H](Cc1c[nH]c2ccccc12)C(=O)N[C@H](Cc1ccccc1)C(=O)N[C@@H](CCCN)C(N)=O [H2 -His-D-Trp-Ala-Trp-D-Phe-Orn-NH2] (HELM PEPTIDE1{H.[dW].A.W.[dF].[Orn].[am]}$$$$V2.0) | 356 ± 92 ng/ml incubation medium |  |  |  | ΔGH (pituitaries; [2]): -295 ± 93 ng/ml incubation medium
NCCCC[C@H](NC(=O)[C@@H](Cc1ccccc1)NC(=O)[C@H](Cc1c[nH]c2ccccc12)NC(=O)[C@H](CO)NC(=O)[C@@H](Cc1c[nH]c2ccccc12)NC(=O)[C@@H](N)Cc1c[nH]cn1)C(N)=O [H2 -His-D-Trp-Ser-Trp-D-Phe-Lys-NH2] (HELM PEPTIDE1{H.[dW].S.W.[dF].K.[am]}$$$$V2.0) | 161 ± 157 ng/ml incubation medium | 705 ± 149 ng/ml incubation medium |  |  | 
CC(C)[C@H](NC(=O)[C@@H](Cc1c[nH]c2ccccc12)NC(=O)[C@@H](N)Cc1c[nH]cn1)C(=O)N[C@@H](Cc1c[nH]c2ccccc12)C(=O)N[C@H](Cc1ccccc1)C(=O)N[C@@H](CCCCN)C(N)=O [H2 -His-D-Trp-Val-Trp-D-Phe-Lys-NH2] (HELM PEPTIDE1{H.[dW].V.W.[dF].K.[am]}$$$$V2.0) |  | -118 ± 65 ng/ml incubation medium |  |  | 
C[C@H](NC(=O)[C@@H](Cc1c[nH]c2ccccc12)NC(=O)[C@@H](N)Cc1ccc(O)cc1)C(=O)N[C@@H](Cc1c[nH]c2ccccc12)C(=O)N[C@H](Cc1ccccc1)C(=O)N[C@@H](CC(N)=O)C(N)=O [H2 -Tyr-D-Trp-Ala-Trp-D-Phe-Asn-NH2] (HELM PEPTIDE1{Y.[dW].A.W.[dF].N.[am]}$$$$V2.0) |  | 244 ng/ml incubation medium | 528 ± 184 ng/ml incubation medium | 1,670 ± 126 ng/ml incubation medium | 
C[C@H](NC(=O)[C@@H](Cc1c[nH]c2ccccc12)NC(=O)[C@@H](N)Cc1ccc(O)cc1)C(=O)N[C@@H](Cc1c[nH]c2ccccc12)C(=O)N[C@H](Cc1ccccc1)C(=O)N[C@@H](CCC(N)=O)C(N)=O [H2 -Tyr-D-Trp-Ala-Trp-D-Phe-Gln-NH2] (HELM PEPTIDE1{Y.[dW].A.W.[dF].Q.[am]}$$$$V2.0) | 240 ng/ml incubation medium |  | 2,000 ± 523 ng/ml incubation medium | 4,235 ± 785 ng/ml incubation medium | ΔGH (pituitaries; [11]): 4,141 ± 576 ng/ml incubation medium
C[C@H](NC(=O)[C@@H](Cc1c[nH]c2ccccc12)NC(=O)[C@@H](N)Cc1ccc(O)cc1)C(=O)N[C@@H](Cc1c[nH]c2ccccc12)C(=O)N[C@H](Cc1ccccc1)C(=O)N[C@@H](CCC(N)=O)C(=O)O [H2 -Tyr-D-Trp-Ala-Trp-D-Phe-Gln-OH] (HELM PEPTIDE1{Y.[dW].A.W.[dF].Q}$$$$V2.0) |  |  | 753 ± 559 ng/ml incubation medium | 2,759 ± 515 ng/ml incubation medium | ΔGH (pituitaries; [11]): 3,994 ± 1,214 ng/ml incubation medium
C[C@H](NC(=O)[C@@H](Cc1c[nH]c2ccccc12)NC(=O)[C@@H](N)Cc1ccc(O)cc1)C(=O)N[C@@H](Cc1c[nH]c2ccccc12)C(=O)N[C@H](Cc1ccccc1)C(=O)N[C@@H](CCC(=O)O)C(N)=O [H2 -Tyr-D-Trp-Ala-Trp-D-Phe-Glu-NH2] (HELM PEPTIDE1{Y.[dW].A.W.[dF].E.[am]}$$$$V2.0) |  | 224 ng/ml incubation medium |  |  | ΔGH (pituitaries; [12]): 472 ± 104 ng/ml incubation medium; ΔGH (pituitaries; [13]): 1,404 ± 179 ng/ml incubation medium; ΔGH (pituitaries; [14]): 1,909 ± 270 ng/ml incubation medium
CSCC[C@H](NC(=O)[C@@H](Cc1ccccc1)NC(=O)[C@H](Cc1c[nH]c2ccccc12)NC(=O)[C@H](C)NC(=O)[C@@H](Cc1c[nH]c2ccccc12)NC(=O)[C@@H](N)Cc1ccc(O)cc1)C(N)=O [H2 -Tyr-D-Trp-Ala-Trp-D-Phe-Met-NH2] (HELM PEPTIDE1{Y.[dW].A.W.[dF].M.[am]}$$$$V2.0) |  | 456 ± 151 ng/ml incubation medium |  | 1,832 ± 441 ng/ml incubation medium | ΔGH (pituitaries; [12]): 1,260 ± 245 ng/ml incubation medium
C[C@H](NC(=O)[C@@H](Cc1c[nH]c2ccccc12)NC(=O)[C@@H](N)Cc1ccc(O)cc1)C(=O)N[C@@H](Cc1c[nH]c2ccccc12)C(=O)N[C@H](Cc1ccccc1)C(=O)N[C@@H](Cc1ccccc1)C(N)=O [H2 -Tyr-D-Trp-Ala-Trp-D-Phe-Phe-NH2] (HELM PEPTIDE1{Y.[dW].A.W.[dF].F.[am]}$$$$V2.0) |  | 10 ± 57 ng/ml incubation medium |  |  | ΔGH (pituitaries; [12]): 330 ng/ml incubation medium; ΔGH (pituitaries; [13]): 710 ng/ml incubation medium; ΔGH (pituitaries; [14]): 1,484 ± 135 ng/ml incubation medium
C[C@H](NC(=O)[C@@H](Cc1c[nH]c2ccccc12)NC(=O)[C@@H](N)Cc1ccc(O)cc1)C(=O)N[C@@H](Cc1c[nH]c2ccccc12)C(=O)N[C@H](Cc1ccccc1)C(=O)N[C@H](C(N)=O)[C@@H](C)O [H2 -Tyr-D-Trp-Ala-Trp-D-Phe-Thr-NH2] (HELM PEPTIDE1{Y.[dW].A.W.[dF].T.[am]}$$$$V2.0) | 94 ± 69 ng/ml incubation medium |  | 650 ± 320 ng/ml incubation medium | 2,167 ± 591 ng/ml incubation medium | ΔGH (pituitaries; [11]): 2,957 ± 834 ng/ml incubation medium
NC(=O)CC[C@H](NC(=O)[C@@H](Cc1ccccc1)NC(=O)[C@H](Cc1c[nH]c2ccccc12)NC(=O)CNC(=O)[C@@H](Cc1c[nH]c2ccccc12)NC(=O)[C@@H](N)Cc1ccc(O)cc1)C(N)=O [H2 -Tyr-D-Trp-Gly-Trp-D-Phe-Gln-NH2] (HELM PEPTIDE1{Y.[dW].G.W.[dF].Q.[am]}$$$$V2.0) |  | 103 ± 248 ng/ml incubation medium | 167 ng/ml incubation medium | 1,092 ng/ml incubation medium | 
H2 -Tyr-D-Trp-Ala-Trp-D-Phe-Lys-NH2 |  | 1,346 ± 328 ng/ml incubation medium |  |  | ΔGH (pituitaries; [12]): 2,160 ± 166 ng/ml incubation medium; ΔGH (pituitaries; [13]): 1,630 ± 135 ng/ml incubation medium; ΔGH (pituitaries; [14]): 1,318 ± 247 ng/ml incubation medium
